According to PubChem BioAssay (NCI):
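Briefly, cells in 96-well plates were exposed to five compound concentrations for 48 h, and endpoints were estimated by linear interpolation. At the GI50, growth is halved. TGI denotes the concentration required for complete inhibition of growth.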

Legend:
Assay in all cases: inhibition of tumour cell growth, NCI panel, 48 h
A498 renal = system: A498 renal
RPMI-8226 leukemia = system: RPMI-8226 leukemia
HL-60(TB) leukemia = system: HL-60(TB) leukemia
LOX IMVI melanoma = system: LOX IMVI melanoma
MALME-3M melanoma = system: MALME-3M melanoma
UACC-62 melanoma = system: UACC-62 melanoma
SNB-75 CNS = system: SNB-75 CNS
HCT-15 colon = system: HCT-15 colon
SF-295 CNS = system: SF-295 CNS
HT29 colon = system: HT29 colon
MDA-MB-231 breast = system: MDA-MB-231 breast
CAKI-1 renal = system: CAKI-1 renal
HOP-62 NSCLC = system: HOP-62 NSCLC
OVCAR-3 ovarian = system: OVCAR-3 ovarian
UO-31 renal = system: UO-31 renal
U251 CNS = system: U251 CNS
IGROV1 ovarian = system: IGROV1 ovarian
SK-OV-3 ovarian = system: SK-OV-3 ovarian
SK-MEL-28 melanoma = system: SK-MEL-28 melanoma
COLO 205 colon = system: COLO 205 colon
HCC-2998 colon = system: HCC-2998 colon
EKVX NSCLC = system: EKVX NSCLC
ACHN renal = system: ACHN renal
HCT-116 colon = system: HCT-116 colon
BT-549 breast = system: BT-549 breast
786-0 renal = system: 786-0 renal
NCI-H226 lung = system: NCI-H226 lung
OVCAR-8 ovarian = system: OVCAR-8 ovarian
KM12 colon = system: KM12 colon
NCI-H460 lung = system: NCI-H460 lung
OVCAR-5 ovarian = system: OVCAR-5 ovarian
DU-145 prostate = system: DU-145 prostate
M14 melanoma = system: M14 melanoma
SK-MEL-2 melanoma = system: SK-MEL-2 melanoma
PC-3 prostate = system: PC-3 prostate
TK-10 renal = system: TK-10 renal
RXF 393 renal = system: RXF 393 renal
MDA-MB-435 = system: MDA-MB-435
NCI/ADR-RES ovarian = system: NCI/ADR-RES ovarian
MCF7 breast = system: MCF7 breast
SF-539 CNS = system: SF-539 CNS
SW-620 colon = system: SW-620 colon
T-47D breast = system: T-47D breast
HS 578T breast = system: HS 578T breast
CCRF-CEM leukemia = system: CCRF-CEM leukemia
SF-268 CNS = system: SF-268 CNS
MOLT-4 leukemia = system: MOLT-4 leukemia
SNB-19 CNS = system: SNB-19 CNS
HOP-92 NSCLC = system: HOP-92 NSCLC
OVCAR-4 ovarian = system: OVCAR-4 ovarian
SN12C renal = system: SN12C renal
A549 NSCLC = system: A549 NSCLC
UACC-257 melanoma = system: UACC-257 melanoma
SR leukemia = system: SR leukemia
NCI-H522 lung = system: NCI-H522 lung

CN(C(=O)CNC(=O)/C=C/c1cccc(Cl)c1)C1CCS(=O)(=O)CC1
GI50 (A498 renal): 0.421 µM | TGI (A498 renal): > 100 µM | GI50 (RPMI-8226 leukemia): 14.8 µM | TGI (RPMI-8226 leukemia): > 100 µM | GI50 (HL-60(TB) leukemia): 2.07 µM | TGI (HL-60(TB) leukemia): > 100 µM | GI50 (LOX IMVI melanoma): 0.7 µM | TGI (LOX IMVI melanoma): > 100 µM | GI50 (MALME-3M melanoma): 3.45 µM | TGI (MALME-3M melanoma): > 100 µM | GI50 (UACC-62 melanoma): 0.986 µM | TGI (UACC-62 melanoma): > 100 µM | GI50 (SNB-75 CNS): 3.02 µM | TGI (SNB-75 CNS): > 100 µM | GI50 (HCT-15 colon): 0.819 µM | TGI (HCT-15 colon): > 100 µM | GI50 (SF-295 CNS): 5.03 µM | TGI (SF-295 CNS): > 100 µM | GI50 (HT29 colon): 0.889 µM | TGI (HT29 colon): > 100 µM | GI50 (MDA-MB-231 breast): 0.525 µM | TGI (MDA-MB-231 breast): > 100 µM | GI50 (CAKI-1 renal): 3.78 µM | TGI (CAKI-1 renal): > 100 µM | GI50 (HOP-62 NSCLC): 11 µM | TGI (HOP-62 NSCLC): > 100 µM | GI50 (OVCAR-3 ovarian): 1.21 µM | TGI (OVCAR-3 ovarian): > 100 µM | GI50 (UO-31 renal): 47 µM | TGI (UO-31 renal): > 100 µM | GI50 (U251 CNS): 39.5 µM | TGI (U251 CNS): > 100 µM | GI50 (IGROV1 ovarian): 3.05 µM | TGI (IGROV1 ovarian): > 100 µM | GI50 (SK-OV-3 ovarian): 18.2 µM | TGI (SK-OV-3 ovarian): > 100 µM | GI50 (SK-MEL-28 melanoma): 59.3 µM | TGI (SK-MEL-28 melanoma): > 100 µM | GI50 (COLO 205 colon): 1.1 µM | TGI (COLO 205 colon): > 100 µM | GI50 (HCC-2998 colon): 0.663 µM | TGI (HCC-2998 colon): > 100 µM | GI50 (EKVX NSCLC): 34.3 µM | TGI (EKVX NSCLC): > 100 µM | GI50 (ACHN renal): 46.4 µM | TGI (ACHN renal): > 100 µM | GI50 (HCT-116 colon): 1.52 µM | TGI (HCT-116 colon): > 100 µM | GI50 (BT-549 breast): 6.09 µM | TGI (BT-549 breast): > 100 µM | GI50 (786-0 renal): 4.57 µM | TGI (786-0 renal): > 100 µM | GI50 (NCI-H226 lung): 1.02 µM | TGI (NCI-H226 lung): > 100 µM | GI50 (OVCAR-8 ovarian): > 100 µM | TGI (OVCAR-8 ovarian): > 100 µM | GI50 (KM12 colon): 7.99 µM | TGI (KM12 colon): > 100 µM | GI50 (NCI-H460 lung): 13.9 µM | TGI (NCI-H460 lung): > 100 µM | GI50 (OVCAR-5 ovarian): 8.5 µM | TGI (OVCAR-5 ovarian): > 100 µM | GI50 (DU-145 prostate): 0.47 µM | TGI (DU-145 prostate): > 100 µM | GI50 (M14 melanoma): 1.48 µM | TGI (M14 melanoma): > 100 µM | GI50 (SK-MEL-2 melanoma): 15.6 µM | TGI (SK-MEL-2 melanoma): > 100 µM | GI50 (PC-3 prostate): > 100 µM | TGI (PC-3 prostate): > 100 µM | GI50 (TK-10 renal): 2.27 µM | TGI (TK-10 renal): > 100 µM | GI50 (RXF 393 renal): 6.47 µM | TGI (RXF 393 renal): 40.7 µM | GI50 (MDA-MB-435): 2.1 µM | TGI (MDA-MB-435): > 100 µM | GI50 (NCI/ADR-RES ovarian): > 100 µM | TGI (NCI/ADR-RES ovarian): > 100 µM | GI50 (MCF7 breast): 1.03 µM | TGI (MCF7 breast): > 100 µM | GI50 (SF-539 CNS): 7.28 µM | TGI (SF-539 CNS): > 100 µM | GI50 (SW-620 colon): 3.51 µM | TGI (SW-620 colon): > 100 µM | GI50 (T-47D breast): 7.36 µM | TGI (T-47D breast): > 100 µM | GI50 (HS 578T breast): 90.4 µM | TGI (HS 578T breast): > 100 µM | GI50 (CCRF-CEM leukemia): > 100 µM | TGI (CCRF-CEM leukemia): > 100 µM | GI50 (SF-268 CNS): 65.1 µM | TGI (SF-268 CNS): > 100 µM | GI50 (MOLT-4 leukemia): 2.12 µM | TGI (MOLT-4 leukemia): > 100 µM | GI50 (SNB-19 CNS): > 100 µM | TGI (SNB-19 CNS): > 100 µM | GI50 (HOP-92 NSCLC): > 100 µM | TGI (HOP-92 NSCLC): > 100 µM | GI50 (OVCAR-4 ovarian): 5.9 µM | TGI (OVCAR-4 ovarian): > 100 µM | GI50 (SN12C renal): 2.99 µM | TGI (SN12C renal): > 100 µM | GI50 (A549 NSCLC): > 100 µM | TGI (A549 NSCLC): > 100 µM | GI50 (UACC-257 melanoma): > 100 µM | TGI (UACC-257 melanoma): > 100 µM | GI50 (SR leukemia): > 100 µM | TGI (SR leukemia): > 100 µM | GI50 (NCI-H522 lung): 1.17 µM | TGI (NCI-H522 lung): > 100 µM
